{"source": "ChEMBL document CHEMBL1126639", "about": "“Centrally acting serotonergic and dopaminergic agents. 2. Synthesis and structure-activity relationships of 2,3,3a,4,9,9a-hexahydro-1H-benz[f]indole derivatives” (J Med Chem, 1993)", "key": {"D(2) dopamine receptor [1]": {"biological_target": "T1, D(2) dopamine receptor (Homo sapiens, UniProt P14416)", "T1 sequence (P14416 whole entry)": "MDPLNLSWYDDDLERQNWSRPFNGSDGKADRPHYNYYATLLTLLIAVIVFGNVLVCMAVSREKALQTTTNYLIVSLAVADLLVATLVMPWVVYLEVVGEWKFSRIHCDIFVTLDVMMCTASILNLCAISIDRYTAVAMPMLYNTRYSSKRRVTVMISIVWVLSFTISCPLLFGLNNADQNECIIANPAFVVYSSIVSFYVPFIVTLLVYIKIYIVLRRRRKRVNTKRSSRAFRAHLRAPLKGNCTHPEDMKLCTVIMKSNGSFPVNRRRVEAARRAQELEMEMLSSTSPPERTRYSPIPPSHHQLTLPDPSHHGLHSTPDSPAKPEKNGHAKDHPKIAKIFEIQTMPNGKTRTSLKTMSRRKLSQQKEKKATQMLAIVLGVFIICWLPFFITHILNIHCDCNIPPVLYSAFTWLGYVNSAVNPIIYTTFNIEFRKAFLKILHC", "test": "Intrinsic activity from GTP shift using CHO cell membranes expressing dopamine receptor D2", "format": "functional"}, "D(2) dopamine receptor [2]": {"biological_target": "T1, D(2) dopamine receptor", "test": "Binding affinity against [3H]U-86,170-labeled dopamine receptor D2 in cloned CHO cells", "format": "cell-based"}, "D(2) dopamine receptor [3]": {"biological_target": "D(2) dopamine receptor (Rattus norvegicus, UniProt P61169)", "sequence (P61169 whole entry)": "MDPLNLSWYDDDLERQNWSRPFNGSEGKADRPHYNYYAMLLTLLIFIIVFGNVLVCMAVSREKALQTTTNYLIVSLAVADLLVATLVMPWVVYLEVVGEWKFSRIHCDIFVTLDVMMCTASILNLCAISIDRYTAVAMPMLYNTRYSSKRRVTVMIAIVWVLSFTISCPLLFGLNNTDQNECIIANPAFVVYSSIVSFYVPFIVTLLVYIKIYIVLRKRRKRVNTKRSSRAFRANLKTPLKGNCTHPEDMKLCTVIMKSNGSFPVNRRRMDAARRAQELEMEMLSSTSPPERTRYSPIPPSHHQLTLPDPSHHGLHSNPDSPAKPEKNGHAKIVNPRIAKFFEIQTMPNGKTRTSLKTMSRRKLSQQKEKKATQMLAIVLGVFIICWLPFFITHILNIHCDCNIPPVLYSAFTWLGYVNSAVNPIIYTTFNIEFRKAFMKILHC", "test": "Binding affinity for [3H]raclopride-labeled dopamine receptor D2 in rat striatum", "format": "tissue-based"}, "Rattus norvegicus [4]": {"system": "Rattus norvegicus", "test": "Effect on the synthesis rates of dopamine (DOPA accumulation) in the rat ventral limbic brain region at 3.7 uM/kg.", "format": "functional, Limbic system"}, "Rattus norvegicus [5]": {"organism": "Rattus norvegicus", "test": "Effect on the synthesis rates of serotonin (5-HTP accumulation) in the rat ventral limbic brain region […].", "format": "functional, Limbic system"}, "Rattus norvegicus [6]": {"system": "Rattus norvegicus", "test": "Inhibition of firing rates of dopaminergic neurons in the substantia nigra pars compacta by intravenous injection in rats", "format": "functional"}, "Mus musculus [7]": {"system": "Mus musculus", "test": "Antagonism of apomorphine for 0-10 minutes in reserpinized mice when a dose of 0.4 micro mol/kg is administered intraperitoneally", "format": "functional"}, "Mus musculus [8]": {"system": "Mus musculus", "test": "Antagonism of apomorphine for 0-10 minutes in reserpinized mice when a dose of 3.7 micro mol/kg is administered intraperitoneally", "format": "functional"}, "Mus musculus [9]": {"system": "Mus musculus", "test": "Antagonism of apomorphine for 0-10 minutes in reserpinized mice when a dose of 37 micro mol/kg is administered intraperitoneally", "format": "functional"}, "Mus musculus [10]": {"system": "Mus musculus", "test": "Antagonism of apomorphine for 10-20 minutes in reserpinized mice when a dose of 0.4 micro mol/kg is administered intraperitoneally", "format": "functional"}, "Mus musculus [11]": {"system": "Mus musculus", "test": "Antagonism of apomorphine for 10-20 minutes in reserpinized mice when a dose of 3.7 micro mol/kg is administered intraperitoneally", "format": "functional"}, "Mus musculus [12]": {"system": "Mus musculus", "test": "Ability to stimulate dopaminergic systems by effect on locomotor activity in reserpinized mice when a dose of 3.7 micro mol/kg is administered intraperitoneally", "format": "functional"}, "Mus musculus [13]": {"system": "Mus musculus", "test": "Ability to stimulate dopaminergic systems by effect on locomotor activity in reserpinized mice when a dose of 37 micro mol/kg is administered intraperitoneally", "format": "functional"}, "Mus musculus [14]": {"system": "Mus musculus", "test": "Ability to stimulate dopaminergic systems by effect on locomotor activity in reserpinized mice when a dose of 0.4 micro mol/kg is administered intraperitoneally", "format": "functional"}, "Mus musculus [15]": {"system": "Mus musculus", "test": "Antagonism of apomorphine in reserpinized mice when a dose of 37 micro mol/kg is administered intraperitoneally", "format": "functional"}, "Mus musculus [16]": {"system": "Mus musculus", "test": "Antagonism of apomorphine for 10-20 minutes in reserpinized mice when a dose of 37 micro mol/kg is administered intraperitoneally", "format": "functional"}, "Mus musculus [17]": {"system": "Mus musculus", "test": "Antagonism of apomorphine in reserpinized mice when a dose of 0.4 micro mol/kg is administered intraperitoneally", "format": "functional"}, "Mus musculus [18]": {"system": "Mus musculus", "test": "Antagonism of apomorphine in reserpinized mice when a dose of 3.7 micro mol/kg is administered intraperitoneally", "format": "functional"}, "Rattus norvegicus [19]": {"system": "Rattus norvegicus", "test": "Inhibition of firing rates of dopaminergic neurons in the substantia nigra pars compacta by intravenous injection in rats.", "format": "functional"}, "Mus musculus [20]": {"system": "Mus musculus", "test": "Antagonism of apomorphine for 0-10 minutes in reserpinized mice when a dose of 3.8 micro mol/kg is administered intraperitoneally", "format": "functional"}, "Mus musculus [21]": {"system": "Mus musculus", "test": "Antagonism of apomorphine for 0-10 minutes in reserpinized mice when a dose of 38 micro mol/kg is administered intraperitoneally", "format": "functional"}, "Mus musculus [22]": {"system": "Mus musculus", "test": "Antagonism of apomorphine for 10-20 minutes in reserpinized mice when a dose of 3.8 micro mol/kg is administered intraperitoneally", "format": "functional"}, "Mus musculus [23]": {"system": "Mus musculus", "test": "Ability to stimulate dopaminergic systems by effect on locomotor activity in reserpinized mice when a dose of 38 micro mol/kg is administered intraperitoneally", "format": "functional"}, "Mus musculus [24]": {"system": "Mus musculus", "test": "Antagonism of apomorphine in reserpinized mice when a dose of 38 micro mol/kg is administered intraperitoneally", "format": "functional"}, "Mus musculus [25]": {"system": "Mus musculus", "test": "Antagonism of apomorphine for 10-20 minutes in reserpinized mice when a dose of 38 micro mol/kg is administered intraperitoneally", "format": "functional"}, "Mus musculus [26]": {"system": "Mus musculus", "test": "Antagonism of apomorphine in reserpinized mice when a dose of 3.8 micro mol/kg is administered intraperitoneally (**,p<0.10)", "format": "functional"}, "Mus musculus [27]": {"system": "Mus musculus", "test": "Ability to stimulate dopaminergic systems by effect on locomotor activity in reserpinized mice when a dose of 3.8 micro mol/kg is administered intraperitoneally", "format": "functional"}}}
{"smiles": "CCCN1CC[C@H]2Cc3c(O)cccc3C[C@@H]21", "values": [{"measurement": "Intrinsic activity", "setting": "D(2) dopamine receptor [1]", "value": 18, "unit": "%"}, {"measurement": "Ki", "setting": "D(2) dopamine receptor [2]", "value": 917, "unit": "nM"}, {"measurement": "Ki", "setting": "D(2) dopamine receptor [3]", "value": "> 630", "unit": "nM"}, {"measurement": "Control", "setting": "Rattus norvegicus [4]", "value": 20, "unit": "%"}, {"measurement": "Control", "setting": "Rattus norvegicus [5]", "value": 12, "unit": "%"}, {"measurement": "ED50", "setting": "Rattus norvegicus [6]", "value": "> 3.73", "unit": "µmol/kg"}, {"measurement": "Locomotor activity", "setting": "Mus musculus [7]", "value": 121}, {"measurement": "Locomotor activity", "setting": "Mus musculus [8]", "value": 109}, {"measurement": "Locomotor activity", "setting": "Mus musculus [9]", "value": 84}, {"measurement": "Locomotor activity", "setting": "Mus musculus [10]", "value": 119}, {"measurement": "Locomotor activity", "setting": "Mus musculus [11]", "value": 119}, {"measurement": "Locomotor activity", "setting": "Mus musculus [12]", "value": 1}, {"measurement": "Locomotor activity", "setting": "Mus musculus [13]", "value": 113}, {"measurement": "Locomotor activity", "setting": "Mus musculus [14]", "value": 45}, {"measurement": "Locomotor activity", "setting": "Mus musculus [15]", "value": 77}, {"measurement": "Locomotor activity", "setting": "Mus musculus [16]", "value": 103}, {"measurement": "Locomotor activity", "setting": "Mus musculus [17]", "value": 81}, {"measurement": "Locomotor activity", "setting": "Mus musculus [18]", "value": 86}, {"measurement": "ED50", "setting": "Rattus norvegicus [19]", "value": "> 3.73", "unit": "µmol/kg"}]}
{"smiles": "C=CCN1CC[C@@H]2Cc3c(O)cccc3C[C@H]21", "values": [{"measurement": "Ki", "setting": "D(2) dopamine receptor [2]", "value": 0.3, "unit": "nM"}, {"measurement": "Ki", "setting": "D(2) dopamine receptor [3]", "value": 3, "unit": "nM"}, {"measurement": "Locomotor activity", "setting": "Mus musculus [7]", "value": 60}, {"measurement": "Locomotor activity", "setting": "Mus musculus [20]", "value": 23}, {"measurement": "Locomotor activity", "setting": "Mus musculus [21]", "value": 54}, {"measurement": "Locomotor activity", "setting": "Mus musculus [10]", "value": 61}, {"measurement": "Locomotor activity", "setting": "Mus musculus [22]", "value": 29}, {"measurement": "Locomotor activity", "setting": "Mus musculus [23]", "value": 1549}, {"measurement": "Locomotor activity", "setting": "Mus musculus [14]", "value": 1092}, {"measurement": "Locomotor activity", "setting": "Mus musculus [24]", "value": 103}, {"measurement": "Locomotor activity", "setting": "Mus musculus [25]", "value": 34}, {"measurement": "Locomotor activity", "setting": "Mus musculus [17]", "value": 141}, {"measurement": "Locomotor activity", "setting": "Mus musculus [26]", "value": 147}, {"measurement": "ED50", "setting": "Rattus norvegicus [19]", "value": 0.002, "unit": "µmol/kg"}, {"measurement": "Locomotor activity", "setting": "Mus musculus [27]", "value": 1297}]}
